Patent publication US7893069B2, “Substituted imidazo[2,1-b]thiazole compounds and uses thereof” (Gruenenthal GmbH, priority 2006, dated 2011)

Tests used:
mGluR5 receptor (pig) = biological target: T1, mGluR5 receptor (pig) (Sus scrofa, UniProt I3LUI7); assay: [3H]-MPEP binding assay, pig brain homogenate; conditions: displacement of 5 nM [3H]-MPEP, 450 μg protein from pig brain homogenate, 60 min, room temperature; read-out: IC50 [3H]-MPEP bond mGluR5 receptor (pig)
T1 construct: 450 μg protein from brain homogenate is incubated with 5 nM; from tissue; host or cells: pig brain halves without medulla, cerebellum and pons; homogenate, differential centrifugation
Description: Substituted imidazo[2,1-b]thiazole compounds corresponding to the foregoing formula I are likewise particularly preferred, which, after 60 minutes of incubation in 450 μg protein from pig brain homogenate at a temperature between 20° C. and 25° C. in a concentration of less than 2500 nM, preferably less than 1000 nM, particularly preferably less than 700 nM, very particularly preferably less than 100 nM, even more preferably less than 70 nM, bring about a 50-percent displacement of [^3H]-2-methyl-6-(3-methoxyphenyl)-ethynylpyridine which is present in a concentration of 5 nM. The determination of the displacement of [^3H]-2-methyl-6-(3-methoxyphenyl)-ethynyl-pyridine is performed as described hereinafter in the section Pharmacological Methods, I. Method for determining the inhibition of [^3H]-MPEP-bonding in the mGluR5 receptor bonding assay.
1. Method for Determining the Affinity to the mGluR5 Receptor
Pig brain homogenate is produced by homogenization (Polytron PT 3000, Kinematica AG, 10,000 rpm for 90 seconds) of pig brain halves without medulla, cerebellum and pons in buffer pH 8.0 (30 mM Hepes, Sigma, order no. H3375+1 tablet complete to 100 ml, Roche Diagnostics, order no. 1836145) in ratio 1:20 (brain weight/volume) and differential centrifugation at 900×g and 40,000×g. In each case, 450 μg protein from brain homogenate is incubated with 5 nM ^3-[H]-MPEP (Tocris, order no. R1212) (MPEP=2-methyl-6-(3-methoxyphenyl)-ethynylpyridine) in 250 μl incubation batches in 96 well microtitration plates and the compounds to be tested (10 μM in the test) in buffer (as above) at room temperature for 60 min.
Thereafter, the batches are filtered with the help of a Brandel Cell Harvester (Brandel, TYP Robotic 9600) on unifilter plates with glass fibre filter mats (Perkin Elmer, order no. 6005177) and subsequently washed with buffer (as above) 3 times with in each case 250 μl per sample. The filter plates are subsequently dried for 60 min at 55° C. 30 μL Ultima Gold™ scintillator is subsequently added per well (Packard BioScience, order no. 6013159) and the samples are measured after 3 hours on the β-counter (Mikrobeta, Perkin Elmer). The unspecific bond is determined by addition of 10 μM MPEP (Tocris, order no. 1212).

rat = assay: Formalin test in rats (phase 2, chronic pain component); type: in vivo; conditions: p.o., 10 mg/kg, administered 30 min before formalin
Description: 2a. Formalin Test in Rats The formalin test (Dubuisson, D. and Dennis, S. G., 1977, Pain, 4, 161-174) represents a model for acute and chronic pain. A biphasic nociceptive reaction, which is recorded by observation of three clearly differentiable behavioural patterns, is induced by a single formalin injection into the dorsal side of a rear paw in freely mobile test animals. The reaction has two phases: Phase 1=Immediate reaction (duration up to 10 min; paw shaking, licking), Phase 2=Late reaction (after a rest phase; likewise, paw shaking, licking; duration up to 60 min). The 1st phase reflects a direct stimulation of the peripheral nocisensors with high spinal nociceptive input or glutamate release (acute pain phase); the 2nd phase reflects a spinal and peripheral hypersensitisation (chronic pain phase). In the investigations presented here, the chronic pain component (phase 2) was evaluated. Formalin with a volume of 50 μl and a concentration of 5% is administered subcutaneously into the dorsal side of the right rear paw of each animal. The substances to be tested are administered 30 min before the formalin injection orally (p.o), intravenously (i.v.) or intraperitoneally (i.p.). The specific changes in behavior such as lifting and shaking the paw, shifts in weight of the animal as well as biting and licking reactions are observed and registered in the period of observation from 21 to 27 min after formalin injection. The various forms of behavior are summarized in the so-called pain rate (PR), which, relative to the sub-intervals of 3 min, represents the calculation of an average nociception reaction. […] The group size is 10 animals (n=10). 2b. Formalin Test in Mice

mGluR5 receptor (human) = biological target: T2, mGluR5 receptor (human) (Homo sapiens, UniProt P41594); assay: Functional Ca2+ influx assay in CHO-hmGluR5 cells (DHPG-stimulated, FLIPR); type: cell-based; conditions: 10 μM DHPG, Ki=IC50/(1+AGConc./EC50)
T2 construct: host or cells: CHO-hmGluR5 cells (purchased cell line; incubated overnight with doxycycline)
Description: The data is analyzed by means of a 1-factorial ANOVA (comparison of treatment groups versus vehicle group). The significance level is set at p<0.05. All the groups have a size of N=10. The test is also described in Hogg, S. (1996) “A review of the validity and variability of the elevated plus-maze as an animal model of anxiety,” Pharmacol. Biochem. Behav. 54, 21-30, and in Rodgers, R. J., Cole, J. C. (1994) “The elevated plus-maze: pharmacology, methodology and ethology,” in Cooper, S. J., Hendrie, C. A. (eds.) Ethology and Psychopharmacology. Wiley & Sons; pp. 9-44. 5. Description of the Functional Ca^2+ Influx Assay […]
After recording the fluorescence base line for 10 sec., 50 μl test substance solution (various test substance concentrations in HBSS buffer with 1% DMSO and 0.02% Tween 20, Sigma) is added and the fluorescence signal is measured for 6 min. 50 μl DHPG solution ((S)-3,5-dihydroxyphenylglycine, Tocris Biotrend Chemikalien GmbH, Cologne, Germany, final DHPG concentration: 10 μM) is subsequently added and the inflow of Ca^2+ is simultaneously measured for 60 sec. […] The data is analysed with Microsoft Excel and GraphPad Prism. The dose-effect curves are calculated with non-linear regression and IC50 values determined. Each data point is determined 3 times and IC50 values are averaged from a minimum of 2 independent measurements. […]

T1 sequence (I3LUI7 19-1212): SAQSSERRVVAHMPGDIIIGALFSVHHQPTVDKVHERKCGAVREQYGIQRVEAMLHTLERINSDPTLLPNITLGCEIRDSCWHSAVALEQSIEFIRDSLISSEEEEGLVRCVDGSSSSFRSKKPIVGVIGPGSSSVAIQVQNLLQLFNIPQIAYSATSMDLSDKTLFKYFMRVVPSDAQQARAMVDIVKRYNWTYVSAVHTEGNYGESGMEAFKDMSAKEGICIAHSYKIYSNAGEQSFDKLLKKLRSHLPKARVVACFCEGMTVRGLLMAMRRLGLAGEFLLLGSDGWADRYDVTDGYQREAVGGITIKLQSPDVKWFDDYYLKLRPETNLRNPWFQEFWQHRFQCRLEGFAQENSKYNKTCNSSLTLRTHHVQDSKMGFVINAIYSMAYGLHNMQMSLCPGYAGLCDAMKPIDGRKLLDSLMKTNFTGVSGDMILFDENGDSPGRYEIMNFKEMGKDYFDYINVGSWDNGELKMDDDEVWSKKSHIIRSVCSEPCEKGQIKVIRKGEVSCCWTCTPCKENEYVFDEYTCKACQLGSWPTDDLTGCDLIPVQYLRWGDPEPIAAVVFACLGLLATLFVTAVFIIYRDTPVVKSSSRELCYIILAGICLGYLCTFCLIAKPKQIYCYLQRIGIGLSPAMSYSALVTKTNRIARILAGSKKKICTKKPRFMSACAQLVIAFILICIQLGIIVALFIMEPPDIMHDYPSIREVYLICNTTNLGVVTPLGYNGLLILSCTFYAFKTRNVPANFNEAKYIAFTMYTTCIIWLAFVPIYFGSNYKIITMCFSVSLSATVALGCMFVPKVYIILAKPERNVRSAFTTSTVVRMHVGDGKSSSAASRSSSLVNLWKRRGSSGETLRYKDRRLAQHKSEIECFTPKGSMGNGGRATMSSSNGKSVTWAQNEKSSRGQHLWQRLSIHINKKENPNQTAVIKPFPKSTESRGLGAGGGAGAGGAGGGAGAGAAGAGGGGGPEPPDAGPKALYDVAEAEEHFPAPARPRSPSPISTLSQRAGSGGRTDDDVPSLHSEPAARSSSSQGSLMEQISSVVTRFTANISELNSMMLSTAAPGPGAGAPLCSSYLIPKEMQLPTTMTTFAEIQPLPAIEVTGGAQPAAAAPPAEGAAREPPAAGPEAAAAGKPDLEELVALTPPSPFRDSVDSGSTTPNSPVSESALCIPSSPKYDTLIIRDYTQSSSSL
T2 sequence (P41594 21-1212): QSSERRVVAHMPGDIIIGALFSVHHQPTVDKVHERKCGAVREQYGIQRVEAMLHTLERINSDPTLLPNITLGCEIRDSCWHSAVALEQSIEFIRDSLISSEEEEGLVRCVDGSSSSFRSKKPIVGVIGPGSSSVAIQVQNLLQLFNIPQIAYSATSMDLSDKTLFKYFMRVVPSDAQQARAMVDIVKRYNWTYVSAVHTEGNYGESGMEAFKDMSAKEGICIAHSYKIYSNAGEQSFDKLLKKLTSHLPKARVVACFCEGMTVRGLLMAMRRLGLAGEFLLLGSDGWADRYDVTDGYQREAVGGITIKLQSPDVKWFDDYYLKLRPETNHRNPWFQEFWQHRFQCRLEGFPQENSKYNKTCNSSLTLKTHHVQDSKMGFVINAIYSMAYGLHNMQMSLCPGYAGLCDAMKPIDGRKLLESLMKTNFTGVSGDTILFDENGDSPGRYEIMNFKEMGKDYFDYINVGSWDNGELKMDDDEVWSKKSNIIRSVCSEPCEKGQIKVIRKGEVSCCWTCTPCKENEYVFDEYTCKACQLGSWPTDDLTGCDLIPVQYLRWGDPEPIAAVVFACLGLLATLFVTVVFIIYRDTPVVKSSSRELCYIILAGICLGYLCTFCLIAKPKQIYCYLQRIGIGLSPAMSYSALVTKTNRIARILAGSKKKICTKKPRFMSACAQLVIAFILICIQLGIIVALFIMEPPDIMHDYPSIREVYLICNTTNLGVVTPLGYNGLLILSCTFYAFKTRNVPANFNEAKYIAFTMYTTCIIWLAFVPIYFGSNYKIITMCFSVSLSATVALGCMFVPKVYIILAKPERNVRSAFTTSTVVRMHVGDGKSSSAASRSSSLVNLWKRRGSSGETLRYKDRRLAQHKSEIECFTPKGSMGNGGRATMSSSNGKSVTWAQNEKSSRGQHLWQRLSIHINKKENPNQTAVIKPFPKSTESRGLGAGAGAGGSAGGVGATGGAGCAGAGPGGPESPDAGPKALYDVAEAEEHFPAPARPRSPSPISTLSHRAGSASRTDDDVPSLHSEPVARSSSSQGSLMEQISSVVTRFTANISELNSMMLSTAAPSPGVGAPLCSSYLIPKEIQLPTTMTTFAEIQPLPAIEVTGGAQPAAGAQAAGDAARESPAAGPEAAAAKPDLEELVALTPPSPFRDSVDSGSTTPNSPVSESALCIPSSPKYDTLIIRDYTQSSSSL

How did the IC50 (mGluR5 receptor (pig)) turn out when `Cc1cn2c(NC(C)(C)C)c(-c3ccc(C#Cc4ccccn4)s3)nc2s1` [Example 4, N-tert-butyl-2-methyl-6-(5-(pyridine-2-ylethynyl)thiophene-2-yl)imidazo[2,1-b]thiazole-5-amine] was run?
The IC50 was 5.5 nM.

And the “Formalin test (rat) p.o. Reduction in the nociceptive behavior over controls at 10 mg/kg” value (rat)?
The value was 62%.

What about the Ki (mGluR5 receptor (human)) of the same molecule?
The Ki was 0.31 nM.

Which results are given for `CC(C)(C)Nc1c(-c2ccc(C#Cc3ccncc3)s2)nc2sccn12` [Example 7, N-tert-butyl-6-(5-(pyridine-4-ylethinyl)thiophene-2-yl)imidazo[2,1-b]thiazole-5-amine]?
IC50 (mGluR5 receptor (pig)): 3 nM; Ki (mGluR5 receptor (human)): 0.26 nM
